Laboratory results: patent publication US9840522B2, “Multi-modal bioprobe for bladder cancer imaging and photodynamic therapy” (Hong Kong Baptist University, priority 2014, dated 2017)

System: xenograft tumor (T24 bladder cancer cells)
Assay: In vivo magnetic resonance imaging after tail vein injection
Design: species or system mice
Conditions: MRI immediately
Procedure: After tail vein injection of Gd-3-R1 and Gd-DOTA into the mice, MRI experiment is conducted immediately.

## O=C([O-])CN1CCN(CC(=O)[O-])CCN(CC(=O)O)CCN(CC(=O)[O-])CC1.[Gd+3] [Gd-DOTA]
  MRI contrast effect on xenograft tumor: enhances the whole body signal without selectivity toward the tumor
